From patent US10023836B2, “Medium for yeasts” (YAMAGUCHI UNIVERSITY, priority 2012, dated 2018)

Assays:
RAK2683 yeast strain = test: Investigation of nitrogen source used singly in MM culture medium instead of ammonium sulfate (Table 4); assay type: cell-based, Saccharomyces cerevisiae; settings: Table 4 conditions
[1] = system: Saccharomyces cerevisiae RAK3599 strain; test: SynAA culture medium: elimination of single components and inorganic ion concentration; assay type: cell-based; settings: one component of the inorganic ion mix eliminated from SynAA culture medium
Description: In a case where no special provisions are made, a procedure for a cultivation experiment using the culture medium to be investigated for proliferation was such that a yeast undergoing investigation was pre-cultured in a YPD liquid culture medium at 28° C. for 24 hours, after which the yeast was adjusted such that OD600=20. […] In addition, OD600 was measured every 15 minutes by a spectrophotometer (Cell density meter co8000, WPA). Hereafter, data is represented by graphs for a case using the automatic spectrophotometer; however, these graphs are primarily used to compare the slope of logarithmic growth phase proliferation curves for each culture medium, and because OD600 is measured without dilution, values where OD600=3 to 3.5 or more may be incorrect.
Culture mediums were prepared in which one component each of the components configuring the inorganic ion mix was eliminated from the SynAA culture medium, and OD600 was measured. […] Thereafter, an investigation specifically of inorganic ion concentration was conducted. […] An investigation was conducted using RAK3599 strain (hereafter, simply referred to as “RAK3599 strain”), which is a strain of Saccharomyces cerevisiae not having a particular nutritional requirement. Where no subsequent special provisions were made, proliferation was investigated by performing roller tube culture for an appropriate amount of time at 28° C. and measuring OD600.
MgSO4 concentration in the SynAA culture mediums was adjusted to 0%, 0.0001%, 0.001%, 0.01%, 0.1%, and 1%, respectively, and proliferation of the RAK3599 strain was investigated. […] Next, MgCl2 concentration in the SynAA culture mediums was adjusted to 0.001%, 0.01%, 0.1%, and 1%, respectively, and proliferation of the RAK3599 strain was investigated.
A culture medium was prepared in which one component each of the components configuring the vitamin mix was eliminated from the SynAA culture medium, with the SynAA culture medium as the control, and proliferation of the RAK3599 strain was investigated.

[2] = system: Saccharomyces cerevisiae adenine-requiring BY4725 (ade2Δ) strain; test: Adenine concentration in AKD culture medium (FIG. 20); assay type: cell-based
Description: A concentration of adenine contained in the amino acid mix of the AKD culture mediums for convenience was adjusted to 0%, 0.005%, 0.01%, 0.05%, 0.1%, and 0.5%, respectively, and proliferation of a Saccharomyces cerevisiae adenine-requiring BY4725 (ade2Δ) strain was investigated. OD600 for 1/20 solutions after 42 hours was 4, 15, 18, 18, 13 and 16, respectively. […] Given the above-noted results, a preferred adenine concentration was understood to be around 0.01%.

[3] = system: Saccharomyces cerevisiae uracil-requiring BY4700 (ura3Δ) strain; test: Uracil concentration in AKD culture medium (FIG. 19); assay type: cell-based
Description: A concentration of uracil contained in the amino acid mix of the AKD culture mediums for convenience was adjusted to 0.001%, 0.005%, 0.05%, 0.1%, and 0.5%, respectively, and proliferation of a Saccharomyces cerevisiae uracil-requiring BY4700 (ura3Δ) strain was investigated. OD600 for 1/100 solutions after 42 hours was 0.10, 0.21, 0.21, 0.22 and 0.20, respectively. Proliferation was confirmed to be low at 0.001%, to increase at 0.005%. and to markedly increase at between 0.05% and 0.1%. Proliferation was confirmed to be somewhat inhibited at 0.5%. Given the above-noted results, a preferred uracil concentration was understood to be around 0.01%.

[4] = system: Saccharomyces cerevisiae histidine-requiring BY4714 (his3Δ1) strain; test: Histidine concentration in AKD culture medium (FIG. 17); assay type: cell-based
Description: Histidine concentration in the AKD culture mediums was adjusted to 0.001%, 0.01%, 0.1%, and 1%, respectively, and proliferation of a Saccharomyces cerevisiae histidine-requiring BY4714 (his3Δ1) strain was investigated. A maximum value was reached between 0.01% and […]. OD600 for 1/100 solutions after 42 hours was 0.07, 0.18, 0.18, and 0.15, respectively. Given the above-noted results, a preferred histidine concentration was understood to be around 0.01%.

RAK3599 strain = test: Investigation with AID and aY-AID culture medium (FIGS. 29 to 39); assay type: cell-based, Saccharomyces cerevisiae; settings: for effect on proliferation when added at high concentrations: up to 1% or up to 0.2500%
Description: As shown in the following, an investigation was conducted into concentrations of each amino acid and a substitution potential of pantothenic acid for the amino acid in the AID culture medium. A suitable YPD culture medium was used as a control.
Next, the amino acids asparagine, isoleucine, phenylalanine, and valine were each adjusted to a culture medium additive concentration of […], 0.0312%, 0.0625%, 0.1250%, and 0.2500%, and OD600 was measured after 24 hours.
Isoleucine concentration in the aY-AID culture medium was adjusted to 0, 0.01 mg/mL, 0.1 mg/mL, 0.5 mg/mL, and 1 mg/mL, respectively, and proliferation of the RAK3599 strain was investigated.
Phenylalanine concentration in the aY-AID culture medium was adjusted to 0, 0.01, 0.1, 0.5, and 1 mg/mL, respectively, and proliferation of the RAK3599 strain was investigated.
Valine concentration in the aY-AID culture medium was adjusted to 0, 0.01, 0.1, 0.5, and 1 mg/mL, respectively, and proliferation of the RAK3599 strain was investigated.
Serine concentration in the AID culture medium was adjusted to 0, 0.01 mg/mL, 0.1 mg/mL, 0.5 mg/mL, and 1 mg/mL, respectively, and proliferation of the RAK3599 strain was investigated.
Threonine concentration in the AID culture medium was adjusted to 0, 0.01, 0.1, 0.5, and 1 mg/mL, respectively, and proliferation of the RAK3599 strain was investigated.
Asparagine concentration in the AID culture medium was adjusted to 0, 0.01, 0.1, 0.5, and 1 mg/mL, respectively, and proliferation of the RAK3599 strain was investigated.
An investigation was conducted into vitamins contained in the AID culture medium. […]

[5] = system: Saccharomyces cerevisiae RAK3599 strain; test: Glutamine, cysteine and amino acid groups in AYD′ / AYD culture medium (FIGS. 40, 41); assay type: cell-based
Description: For the AYD′ culture medium, an investigation was conducted into glutamine and cysteine concentrations using Saccharomyces cerevisiae RAK3599 strain.

[6] = system: Saccharomyces cerevisiae tryptophan-requiring BY4710 (trp1Δ) strain; test: Tryptophan concentration in AKD culture medium (FIG. 18); assay type: cell-based
Description: Tryptophan concentration in the AKD culture mediums was adjusted to 0.001%, 0.01%, 0.1%, and 1%, respectively, and proliferation of a Saccharomyces cerevisiae tryptophan-requiring BY4710 (trp1Δ) strain was investigated. OD600 for 1/100 solutions after 48 hours was 0.08, 0.15, 0.13, and 0.12, respectively. […] Given the above-noted results, a preferred tryptophan concentration was understood to be around 0.01%.

N.N.O=S(=O)(O)O [Ammonium sulfate]
proliferation when added singly as nitrogen source (RAK2683 yeast strain): proliferation was confirmed to be extremely poor | proliferation when the component is not added [1]: higher proliferation

Nc1ncnc2nc[nH]c12 [adenine]
concentration at which proliferation was slightly inhibited [2]: ≥ 0.1% | preferred concentration [2]: around 0.01% | OD600 for 1/20 solutions after 42 hours ([2]; adenine 0%): 4 | OD600 for 1/20 solutions after 42 hours ([2]; adenine 0.005%): 15 | OD600 for 1/20 solutions after 42 hours ([2]; adenine 0.01%): 18 | OD600 for 1/20 solutions after 42 hours ([2]; adenine 0.05%): 18 | OD600 for 1/20 solutions after 42 hours ([2]; adenine 0.1%): 13 | OD600 for 1/20 solutions after 42 hours ([2]; adenine 0.5%): 16

O=C(O)[C@@H]1CCCN1 [Proline, L-Proline]
proliferation when added singly as nitrogen source (RAK2683 yeast strain): favorable proliferation

O=c1cc[nH]c(=O)[nH]1 [uracil]
concentration at which proliferation was somewhat inhibited [3]: 0.5% | preferred concentration [3]: around 0.01% | OD600 for 1/100 solutions after 42 hours ([3]; uracil 0.001%): 0.10 | OD600 for 1/100 solutions after 42 hours ([3]; uracil 0.005%): 0.21 | OD600 for 1/100 solutions after 42 hours ([3]; uracil 0.05%): 0.21 | OD600 for 1/100 solutions after 42 hours ([3]; uracil 0.1%): 0.22 | OD600 for 1/100 solutions after 42 hours ([3]; uracil 0.5%): 0.20

Cl.N[C@@H](Cc1c[nH]cn1)C(=O)O.O [Histidine, L-Histidine hydrochloride hydrate]
preferred concentration [4]: around 0.01% | OD600 for 1/100 solutions after 42 hours ([4]; histidine 0.001%): 0.07 | OD600 for 1/100 solutions after 42 hours ([4]; histidine 0.01%): 0.18 | OD600 for 1/100 solutions after 42 hours ([4]; histidine 0.1%): 0.18 | OD600 for 1/100 solutions after 42 hours ([4]; histidine 1%): 0.15 | proliferation when added singly as nitrogen source (RAK2683 yeast strain): almost no proliferation

NC(=O)CC[C@H](N)C(=O)O [Glutamine, L-Glutamine]
effect on proliferation when added at high concentrations (RAK3599 strain; AID culture medium): proliferation was confirmed to be inhibited | appropriate concentration ([5]; AYD′ culture medium): 5 g/L | growth ([5]; AYD′ culture medium, glutamine concentration set to 10 times the previous concentration): growth was confirmed to be extremely improved

N[C@@H](Cc1c[nH]c2ccccc12)C(=O)O [Tryptophan, L-Tryptophan]
concentration at which proliferation was somewhat inhibited [6]: 0.1% | preferred concentration [6]: around 0.01% | OD600 for 1/100 solutions after 48 hours ([6]; tryptophan 0.001%): 0.08 | OD600 for 1/100 solutions after 48 hours ([6]; tryptophan 0.01%): 0.15 | OD600 for 1/100 solutions after 48 hours ([6]; tryptophan 0.1%): 0.13 | OD600 for 1/100 solutions after 48 hours ([6]; tryptophan 1%): 0.12

Cl.N [Ammonium chloride]
proliferation when added singly as nitrogen source (RAK2683 yeast strain): did not, as a whole, exhibit favorable proliferation

C[C@@H](O)[C@H](N)C(=O)O [Threonine, L-Threonine]
content at which proliferation particularly increased (RAK3599 strain; AID culture medium): around 0.5 mg/mL | effect on proliferation when added at high concentrations (RAK3599 strain; AID culture medium): proliferation was confirmed to be inhibited | preferred concentration / content (RAK3599 strain; AID or aY-AID culture medium): around 0.5 g/L | proliferation when added singly as nitrogen source (RAK2683 yeast strain): almost no proliferation

NCC(=O)O [Glycine]
effect on proliferation when added at high concentrations (RAK3599 strain; AID culture medium): proliferation was confirmed to be inhibited | proliferation when added singly as nitrogen source (RAK2683 yeast strain): almost no proliferation

CSCC[C@H](N)C(=O)O [Methionine, L-Methionine]
effect on proliferation when added at high concentrations (RAK3599 strain; AID culture medium): proliferation was confirmed to be inhibited | proliferation when eliminated from the AYD culture medium ([5]; amino acid group or individual amino acid of the AY5 group eliminated): proliferation decreases

Cl.NCCCC[C@H](N)C(=O)O [Lysine, L-Lysine hydrochloride]
proliferation when added singly as nitrogen source (RAK2683 yeast strain): almost no proliferation

N[C@@H](CS)C(=O)O [Cysteine, L-Cysteine]
effect on proliferation when added at high concentrations (RAK3599 strain; AID culture medium): proliferation was confirmed to be inhibited | appropriate concentration ([5]; AYD′ culture medium): around 0.01 g/L

CC(=O)O.N [Ammonium acetate]
proliferation when added singly as nitrogen source (RAK2683 yeast strain): did not, as a whole, exhibit favorable proliferation
